Test results as given in PMC7413254 (Nature Communications, 2020).
Read-outs that look alike come from different tables or passages of the source.

Columns and labels:
PfCRT^3D7 [1] = target: T1, PfCRT^3D7 (Plasmodium falciparum, UniProt Q8IBZ9); experiment: cell-based; type: cell-based
Summary of the method: (§1)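 Oocytes (ten per treatment, ≥4 independent frogs/days) were preloaded by injecting VF-6 in 25 nL ND96 at pH 5.0, 5.5, 6.0 or 7.0, or Na^+-free choline buffer, then uptake run 1.5 h, 27.5 °C, ND96 pH 5.5 by default. Internal concentrations assumed ~400 nL oocyte volume.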

PfNT1 = target: T2, PfNT1 (Plasmodium falciparum, UniProt Q8IDM6); experiment: cell-based; type: cell-based; conditions: for activity at 5000 µM: total [3H]CQ transport
T2 construct: expressed in transfected cells; host or cells: Xenopus laevis oocytes (stage V-VI), cRNA-injected
Summary of the method: as §1

PfCRT^Ecu1110 [2] = target: T3, PfCRT^Ecu1110 (Plasmodium falciparum, UniProt Q9N623, A220S/I356L/K76T/N326D); experiment: cell-based; type: cell-based; conditions: […]
Summary of the method: as §1

PfCRT^Dd2 [3] = target: T4, PfCRT^Dd2 (Plasmodium falciparum, UniProt Q9N623, A220S/I356T/K76T/M74I/N326S/N75E/Q271E/R371I); experiment: cell-based; type: cell-based; conditions: […]
Summary of the method: as §1

non-expressing oocytes [4] = experiment: cells; type: cell-based, Xenopus laevis; conditions: Xenopus laevis, total [3H]CQ transport; for inhibition at 500 µM: [test solute] = 0.5 mM; for inhibition at 1000 µM: [test solute] = 1 mM; for inhibition at 2000 µM: [test solute] = 2 mM
Summary of the method: (§2)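 Inward transport into oocyte cytosol from pH 5.5 medium models PfCRT efflux from the acidic digestive vacuole. Incubation 1.5 h, 27.5 °C; termination by ice-cold washes; lysate radioactivity counted.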

non-expressing oocytes [5] = type: cell-based, Xenopus laevis; conditions: total [3H]CQ transport; for Uptake of [3H]CQ (% non-expressing oocyte control), trans-stimulation: non-expressing oocytes, normalised to the oocyte type control; for Uptake of [3H]CQ (% PfCRTDd2 control), trans-stimulation, non-expressing oocytes: mean ± SEM, SEM
Summary of the method: as §1

PfCRT [6] = experiment: Influx of VF-6 via PfCRT into the oocyte, solutes tested as potential co-substrates; type: cell-based, Plasmodium falciparum; design: key: X: Compounds that have been tested as potential co-substrates but are not required for influx of VF-6 via PfCRT into the oocyte; conditions: X marks the solute
PfCRT^3D7 [7] = target: T1, PfCRT^3D7; experiment: cell-based; type: cell-based; conditions: total [3H]CQ transport; for inhibition at 500 µM: [test solute] = 0.5 mM; for inhibition at 1000 µM: [test solute] = 1 mM; for inhibition at 2000 µM: [test solute] = 2 mM
Summary of the method: as §2

PfCRT^Ecu1110 [8] = target: T3, PfCRT^Ecu1110; experiment: [3H]CQ uptake into Xenopus oocytes, cis-inhibition by unlabelled solute; type: cell-based
Summary of the method: as §2

PfCRT^Dd2 [9] = target: T4, PfCRT^Dd2; experiment: as above; type: cell-based
Summary of the method: as §2

PfCRT [10] = experiment: Potential co-substrates tested for influx of VF-6 via PfCRT into the oocyte; type: cell-based, Plasmodium falciparum; design: key: X: Compounds that have been tested as potential co-substrates but are not required for influx of VF-6 via PfCRT into the oocyte
[11] = Oocyte, mean ± SEM, SEM, read-out: Uptake of [3H]CQ (% PfCRTDd2 control), cis-inhibition, non-expressing oocytes
[12] = non-expressing oocytes, normalised to the oocyte type control, read-out: Uptake of [3H]CQ (% non-expressing oocyte control), cis-inhibition
[13] = PfCRT3D7 oocytes, normalised to the oocyte type control, read-out: Uptake of [3H]CQ (% PfCRT3D7 control), cis-inhibition
[14] = mean ± SEM, SEM, read-out: Uptake of [3H]CQ (% PfCRTDd2 control), cis-inhibition, PfCRT3D7
[15] = read-out: PfCRT-mediated [3H]CQ transport, cis-inhibition (% PfCRTEcu1110 control)
[16] = read-out: Uptake of [3H]CQ (% PfCRTDd2 control), cis-inhibition, PfCRTEcu1110, SEM
[17] = read-out: Uptake of [3H]CQ (% PfCRTEcu1110 control), cis-inhibition
[18] = read-out: [3H]CQ transport (% PfCRTEcu1110 control), cis-inhibition, PfCRTEcu1110, SEM
[19] = read-out: PfCRT-mediated [3H]CQ transport, cis-inhibition (% PfCRTDd2 control)
[20] = read-out: Uptake of [3H]CQ (% PfCRTDd2 control), cis-inhibition, PfCRTDd2, SEM

T2 sequence (Q8IDM6 whole entry): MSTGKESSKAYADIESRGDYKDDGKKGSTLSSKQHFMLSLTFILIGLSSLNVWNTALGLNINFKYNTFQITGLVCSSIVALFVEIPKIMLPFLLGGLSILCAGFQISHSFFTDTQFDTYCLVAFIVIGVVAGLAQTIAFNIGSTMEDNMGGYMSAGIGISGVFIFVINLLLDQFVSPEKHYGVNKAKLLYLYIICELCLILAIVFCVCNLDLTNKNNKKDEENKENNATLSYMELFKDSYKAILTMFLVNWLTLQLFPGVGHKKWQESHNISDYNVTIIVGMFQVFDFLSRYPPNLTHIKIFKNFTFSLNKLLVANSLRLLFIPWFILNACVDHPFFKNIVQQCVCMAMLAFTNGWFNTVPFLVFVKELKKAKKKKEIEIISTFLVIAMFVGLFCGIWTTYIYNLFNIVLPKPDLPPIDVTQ
T3 sequence (Q9N623 whole entry A220S/I356L/K76T/N326D): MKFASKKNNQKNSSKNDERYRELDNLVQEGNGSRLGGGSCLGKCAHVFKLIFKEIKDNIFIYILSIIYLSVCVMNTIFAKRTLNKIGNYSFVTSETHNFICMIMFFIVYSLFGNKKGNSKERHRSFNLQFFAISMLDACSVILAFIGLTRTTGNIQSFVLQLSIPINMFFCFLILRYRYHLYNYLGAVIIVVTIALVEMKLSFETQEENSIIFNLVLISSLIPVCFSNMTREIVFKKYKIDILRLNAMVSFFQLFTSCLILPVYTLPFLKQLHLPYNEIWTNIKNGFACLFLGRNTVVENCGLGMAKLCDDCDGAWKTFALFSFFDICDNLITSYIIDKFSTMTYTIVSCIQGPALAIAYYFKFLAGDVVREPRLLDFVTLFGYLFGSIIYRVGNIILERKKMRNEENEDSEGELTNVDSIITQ
T1 sequence (Q8IBZ9 59-398): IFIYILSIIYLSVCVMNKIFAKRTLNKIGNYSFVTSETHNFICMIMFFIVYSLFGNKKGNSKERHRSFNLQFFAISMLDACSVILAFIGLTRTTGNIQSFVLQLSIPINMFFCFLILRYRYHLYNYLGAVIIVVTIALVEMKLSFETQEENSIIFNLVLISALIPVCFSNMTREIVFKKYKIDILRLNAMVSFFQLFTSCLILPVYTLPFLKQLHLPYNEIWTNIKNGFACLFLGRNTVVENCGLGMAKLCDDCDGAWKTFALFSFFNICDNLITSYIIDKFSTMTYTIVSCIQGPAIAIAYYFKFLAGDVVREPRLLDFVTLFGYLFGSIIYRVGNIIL
T4 sequence (Q9N623 whole entry A220S/I356T/K76T/M74I/N326S/N75E/Q271E/R371I): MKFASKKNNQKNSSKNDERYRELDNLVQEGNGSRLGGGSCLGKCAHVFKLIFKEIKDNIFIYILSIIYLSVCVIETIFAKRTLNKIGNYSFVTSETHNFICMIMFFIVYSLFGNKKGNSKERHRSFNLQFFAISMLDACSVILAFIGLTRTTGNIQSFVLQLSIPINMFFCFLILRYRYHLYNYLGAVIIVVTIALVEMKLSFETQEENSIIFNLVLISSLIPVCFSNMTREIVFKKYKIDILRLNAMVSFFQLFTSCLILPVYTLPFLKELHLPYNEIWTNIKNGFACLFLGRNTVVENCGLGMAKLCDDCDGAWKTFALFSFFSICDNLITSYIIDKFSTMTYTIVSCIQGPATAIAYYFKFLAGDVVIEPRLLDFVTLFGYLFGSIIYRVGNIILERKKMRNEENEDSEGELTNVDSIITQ

N[C@@H](Cc1c[nH]cn1)C(=O)O [L-histidine]
activity at 5000 µM (PfCRT^3D7 [1]; PfCRT3D7 oocytes, [test solute]i = 5 mM, total [3H]CQ transport, normalised to the oocyte type control, read-out: Uptake of [3H]CQ (% PfCRT3D7 control), trans-stimulation): 97 ± 3.6%
[3H]CQ transport (% PfCRT3D7 control), trans-stimulation, PfCRT3D7 (PfCRT^3D7 [1]; SEM): 0.2 ± 0.01 % PfCRT3D7 control
activity at 5000 µM (PfCRT^3D7 [1]; [test solute]i = 5 mM (intracellular), PfCRT3D7 oocytes, normalised to oocyte type control, read-out: PfCRT-mediated [3H]CQ transport, trans-stimulation (% PfCRT3D7 control)): 95 ± 2.9%
activity at 45000 µM (PfCRT^3D7 [1]; SEM, read-out: Uptake of [3H]CQ (% PfCRTDd2 control), trans-stimulation, PfCRT3D7): 3.3 ± 0.02%
activity at 45000 µM (PfCRT^3D7 [1]; read-out: PfCRT-mediated [3H]CQ transport, trans-stimulation (% PfCRT3D7 control)): 97 ± 2.2%
activity at 45000 µM (PfCRT^3D7 [1]; read-out: Uptake of [3H]CQ (% PfCRT3D7 control), trans-stimulation): 99 ± 3.7%
activity at 5000 µM (PfCRT^3D7 [1]; total [3H]CQ transport, [test solute]i = 5 mM (intracellular), mean ± SEM, SEM, read-out: Uptake of [3H]CQ (% PfCRTDd2 control), trans-stimulation, PfCRT3D7): 3.2 ± 0.09%
activity at 5000 µM (PfNT1; PfNT1 oocytes, [test solute]i = 5 mM, normalised to the oocyte type control, read-out: Uptake of [3H]CQ (% PfNT1 control), trans-stimulation): 99 ± 3.3%
activity at 45000 µM (PfNT1; SEM, read-out: Uptake of [3H]CQ (% PfCRTDd2 control), trans-stimulation, PfNT1): 2.6 ± 0.04%
activity at 45000 µM (PfNT1; read-out: Uptake of [3H]CQ (% PfNT1 control), trans-stimulation): 99 ± 4.2%
activity at 5000 µM (PfNT1; [test solute]i = 5 mM (intracellular), mean ± SEM, SEM, read-out: Uptake of [3H]CQ (% PfCRTDd2 control), trans-stimulation, PfNT1): 2.2 ± 0.09%
activity at 5000 µM (PfCRT^Ecu1110 [2]; pH 5.5, read-out: Uptake of [3H]CQ (% PfCRTEcu1110 control), trans-stimulation, PfCRTEcu1110 oocytes, [test solute]i = 5 mM, total [3H]CQ transport, normalised to the oocyte type control): 100 ± 3.6%
activity at 45000 µM (PfCRT^Ecu1110 [2]; pH 5.5, read-out: Uptake of [3H]CQ (% PfCRTEcu1110 control), trans-stimulation, PfCRTEcu1110 oocytes, [test solute]i = 45 mM (30 mM for some solutes due to solubility), total [3H]CQ transport, normalised to the oocyte type control): 99 ± 3%
activity at 5000 µM (PfCRT^Ecu1110 [2]; read-out: Uptake of [3H]CQ (% PfCRTDd2 control), trans-stimulation, PfCRTEcu1110, total [3H]CQ transport, [test solute]i = 5 mM (intracellular), mean ± SEM, SEM): 36 ± 1.3%
activity at 45000 µM (PfCRT^Ecu1110 [2]; read-out: Uptake of [3H]CQ (% PfCRTDd2 control), trans-stimulation, PfCRTEcu1110, total [3H]CQ transport, [test solute]i = 45 mM (intracellular; 30 mM for some solutes due to solubility), mean ± SEM, SEM): 35 ± 2.5%
activity at 5000 µM (PfCRT^Dd2 [3]; pH 5.5, read-out: Uptake of [3H]CQ (% PfCRTDd2 control), trans-stimulation, PfCRTDd2, total [3H]CQ transport, [test solute]i = 5 mM (intracellular), mean ± SEM, SEM): 101 ± 2.2%
activity at 5000 µM (PfCRT^Dd2 [3]; pH 5.5, read-out: Uptake of [3H]CQ (% PfCRTDd2 control), trans-stimulation, PfCRTDd2 oocytes, [test solute]i = 5 mM, total [3H]CQ transport, normalised to the oocyte type control): 101 ± 2.2%
activity at 45000 µM (PfCRT^Dd2 [3]; pH 5.5, read-out: Uptake of [3H]CQ (% PfCRTDd2 control), trans-stimulation, PfCRTDd2 oocytes, [test solute]i = 45 mM (30 mM for some solutes due to solubility), total [3H]CQ transport, normalised to the oocyte type control): 97 ± 3.2%
inhibition at 500 µM (non-expressing oocytes [4]; [11]): 2.4 ± 0.06%
inhibition at 1000 µM (non-expressing oocytes [4]; [11]): 2.8 ± 0.07%
inhibition at 2000 µM (non-expressing oocytes [4]; [11]): 2.6 ± 0.05%
inhibition at 500 µM (non-expressing oocytes [4]; [12]): 96 ± 4.3%
inhibition at 1000 µM (non-expressing oocytes [4]; [12]): 99 ± 3.7%
inhibition at 2000 µM (non-expressing oocytes [4]; [12]): 99 ± 4.7%
Uptake of [3H]CQ (% non-expressing oocyte control), trans-stimulation (non-expressing oocytes [5]; [test solute]i = 5 mM): 99 ± 3.6 % non-expressing oocyte control
Uptake of [3H]CQ (% non-expressing oocyte control), trans-stimulation (non-expressing oocytes [5]; [test solute]i = 45 mM (30 mM for some solutes due to solubility)): 100 ± 4.8 % non-expressing oocyte control
Uptake of [3H]CQ (% PfCRTDd2 control), trans-stimulation, non-expressing oocytes (non-expressing oocytes [5]; [test solute]i = 5 mM (intracellular)): 3.0 ± 0.06 % PfCRTDd2 control
Uptake of [3H]CQ (% PfCRTDd2 control), trans-stimulation, non-expressing oocytes (non-expressing oocytes [5]; [test solute]i = 45 mM (intracellular; 30 mM for some solutes due to solubility)): 2.5 ± 0.01 % PfCRTDd2 control
Compounds that have been tested as potential co-substrates but are not required for influx of VF-6 via PfCRT into the oocyte (PfCRT [6]): X
inhibition at 500 µM (PfCRT^3D7 [7]; [13]): 99 ± 5.2%
inhibition at 1000 µM (PfCRT^3D7 [7]; [13]): 99 ± 3.6%
inhibition at 2000 µM (PfCRT^3D7 [7]; [13]): 101 ± 4.7%
inhibition at 500 µM (PfCRT^3D7 [7]; [14]): 3.7 ± 0.02%
inhibition at 1000 µM (PfCRT^3D7 [7]; [14]): 2.8 ± 0.02%
inhibition at 2000 µM (PfCRT^3D7 [7]; [14]): 2.8 ± 0.03%
inhibition at 500 µM (PfCRT^Ecu1110 [8]; [15]): 95 ± 1.5%
inhibition at 1000 µM (PfCRT^Ecu1110 [8]; [15]): 94 ± 3.2%
inhibition at 2000 µM (PfCRT^Ecu1110 [8]; [15]): 98 ± 2.6%
inhibition at 500 µM (PfCRT^Ecu1110 [8]; [16]): 32 ± 1.4%
inhibition at 1000 µM (PfCRT^Ecu1110 [8]; [16]): 31 ± 2.1%
inhibition at 2000 µM (PfCRT^Ecu1110 [8]; [16]): 33 ± 1%
inhibition at 500 µM (PfCRT^Ecu1110 [8]; [17]): 97 ± 5.6%
inhibition at 1000 µM (PfCRT^Ecu1110 [8]; [17]): 96 ± 4.6%
inhibition at 2000 µM (PfCRT^Ecu1110 [8]; [17]): 100 ± 8.2%
inhibition at 500 µM (PfCRT^Ecu1110 [8]; [18]): 29 ± 0.4%
inhibition at 1000 µM (PfCRT^Ecu1110 [8]; [18]): 28 ± 0.2%
inhibition at 2000 µM (PfCRT^Ecu1110 [8]; [18]): 30 ± 1.3%
inhibition at 500 µM (PfCRT^Dd2 [9]; [19]): 96 ± 3.6%
inhibition at 1000 µM (PfCRT^Dd2 [9]; [19]): 97 ± 4.1%
inhibition at 500 µM (PfCRT^Dd2 [9]; [20]): 98 ± 9.7%
inhibition at 1000 µM (PfCRT^Dd2 [9]; [20]): 99 ± 4.2%
inhibition at 2000 µM (PfCRT^Dd2 [9]; [20]): 100 ± 2.2%
Tested as potential co-substrate but not required for influx of VF-6 via PfCRT into the oocyte (PfCRT [10]): X
